Test results as given in patent publication US12336981B2, “Compounds and compositions for the inhibition of NAMPT” (Valo Health, Inc., priority 2010, dated 2025).
pIC50: −log10 of the molar value. Structures can show the parent of a compound that is named as a salt.

Key:
[1] = system: A2780 cells; test: Xenograft studies: A2780 tumors s.c. in C.B-17-Igh-1b-Prkdc scid mice; type: in vivo; details: female scid mice, p.o. BID for 5 or 10 days, dose selected from MTD study
Protocol: C.B-17-Igh-1b-Prkdc^scid mice (female) were injected s.c. with 5×10^6 A2780 cells (NCI) in the left flank. 10-12 days later when tumors reached 100-200 mm3 in size, mice were randomized into treatment groups of 8 mice per group including vehicle control and reference standard groups. The compounds were formulated in 60:30:10 PEG-400: D5W: Ethanol and administered p.o., at the dose volume of 10 ml/kg BID for a duration of 5 or 10 days. The dose used for efficacy was selected from the MTD (Maximum Tolerated Dose) study. Mice were weighed and tumors measured using vernier calipers every alternate day. Tumor volume was calculated according to the formula (length×width^2)/2. All animal work was approved by the Institutional Animal Care and Use Committee of Biological Resource Centre, Singapore.

[2] = system: A2780 cells; test: In-vitro cell proliferation assay (SRB), A2780 cells; type: cell-based; details: Homo sapiens, A2780, 72 h, A2780 cells, 72 hours, SRB assay; read-out: A2780 IC50
Summary of the method: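 SRB read-out: 6% TCA fix 1 h at 4° C., stain, Tris solubilize, A570. Media-only background subtracted; % inhibition from two compound concentrations.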

[3] = target: T1, NAMPT (Homo sapiens, UniProt P43490); test: Biochemical inhibition assay: NAMPT enzymatic reaction, NMN quantified by mass spectrometry; details: NAMPT enzymatic reaction; read-out: Biochem IC50
T1 construct: His tag; host or cells: E. coli
T1 sequence (P43490 whole entry): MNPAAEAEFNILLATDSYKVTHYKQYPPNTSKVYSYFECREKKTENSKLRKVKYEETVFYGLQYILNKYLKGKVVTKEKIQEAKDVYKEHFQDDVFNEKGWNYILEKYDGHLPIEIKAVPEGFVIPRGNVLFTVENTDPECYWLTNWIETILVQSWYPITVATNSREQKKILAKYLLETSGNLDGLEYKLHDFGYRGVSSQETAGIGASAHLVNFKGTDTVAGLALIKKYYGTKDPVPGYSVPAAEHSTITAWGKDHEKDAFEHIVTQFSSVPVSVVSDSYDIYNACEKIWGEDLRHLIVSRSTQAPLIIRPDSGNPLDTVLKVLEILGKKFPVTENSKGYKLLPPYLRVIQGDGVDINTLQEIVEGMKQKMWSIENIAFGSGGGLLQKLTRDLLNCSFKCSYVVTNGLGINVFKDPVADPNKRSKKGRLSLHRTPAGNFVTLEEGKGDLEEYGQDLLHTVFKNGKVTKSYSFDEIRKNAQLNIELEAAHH
Summary of the method: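 Inhibition of E. coli-expressed His-tagged human NAMPT, measured as NMN formation by mass spectrometry after a 30 min room-temperature reaction containing 1 μM NAM, 100 μM PRPP and 2.5 mM ATP.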

[4] = system: U251 cells; test: In-vitro cell proliferation assay (SRB), U251 cells; type: cell-based; details: Homo sapiens, U-251, 72 hours
Protocol: After overnight incubation at 37° C. and 5% CO2, the compound titrations were performed in a separate dilution plate by serially diluting the compounds in DMSO to make a 1000× stock. The compounds were then further diluted to 10× final concentration in culture media, whereupon 20 μL of each dilution was added to the plated cells with controls (e.g. DMSO and blank) to make a final volume of 5 200 μL. The final DMSO concentration in each well was 0.1%. The plates were then incubated for 72 hours at 37° C. in a 5% CO2 incubator. The number of viable cells was then assessed using sulforhodamine B (SRB) assay. Cells were fixed at 4° C. for 1 hour with the addition of 50 μL 30% trichloroacetic acid (TCA) to make a final concentration of 6% 10 TCA. The plates were washed four times with H2O and allowed to dry for at least 1 hour, whereupon 100 μL of a 4% SRB in 1% acetic acid solution was added to each well and incubated at room temperature for at least 30 minutes. The plates were then washed three times with 1% acetic acid, dried, and treated with 100 μL of 10 mM Tris-Base solution. The plates were then read in a microplate reader at an absorbance of 570 nm. 15 Background was generated on a separate plate with media only. Method for Determining % Inhibition First, the signals from the background plate are averaged, then the background was subtracted from the test plates.

[5] = system: tumor cell lines; details: broad range of tumor cell lines; Ravaud et al. 2005; cited from earlier work
[6] = system: murine renal cell carcinoma; details: Drevs et al. 2003; cited from earlier work
[7] = system: HepG2 cells; details: Hasmann et al. 2003; cited from earlier work
[8] = system: mouse mammary carcinoma; details: in vivo; cited from earlier work

SMILES	Effect on tumor in A2780 xenograft [1]	pIC50 [2]	pIC50 [3]	pIC50 [4]	further results
O=C(NCc1ccc(S(=O)(=O)c2cccnc2)cc1)c1cc2cnccc2[nH]1 [N-{[4-(pyridine-3-sulfonyl)phenyl]methyl}-1H-pyrrolo[3,2-c]pyridine-2-carboxamide]	delayed tumor growth	7.32	7.68	–	–
O=C(NCc1ccc(S(=O)(=O)c2ccccc2)cc1)c1cc2cnccc2[nH]1 [N-{[4-(benzenesulfonyl)phenyl]methyl}-1H-pyrrolo[3,2-c]pyridine-2-carboxamide]	tumor regression	–	–	7.40	–
O=C(NCc1ccc(S(=O)(=O)c2ccccc2)cc1)c1cc2ccncc2s1 [N-{[4-(benzenesulfonyl)phenyl]methyl}thieno[2,3-c]pyridine-2-carboxamide]	tumor regression	7.92	7.96	–	–
N#C/N=C(\NCCCCCCOc1ccc(Cl)cc1)Nc1ccncc1 [CHS-828]	–	–	–	–	Cell growth inhibition in tumor cell lines [5]: potently inhibit cell growth
O=C(/C=C/c1cccnc1)NCCCCC1CCN(C(=O)c2ccccc2)CC1 [FK866, (E)-N-[4-(1-benzoylpiperidin-4-yl)butyl]-3-(pyridine-3-yl)-acrylamide]	–	–	–	–	Activity in murine renal cell carcinoma model [6]: anti-tumor, antimetastatic, and anti-angiogenic activities; Apoptosis in HepG2 cells [7]: induces apoptosis; Tumor growth in mouse mammary carcinoma model [8]: delay in tumor growth
O=C(NCc1ccc(S(=O)(=O)c2ccc(F)cc2)cc1)c1ccc2nccn2c1 [N-({4-[(4-fluorobenzene)sulfonyl]phenyl}methyl)imidazo[1,2-a]pyridine-6-carboxamide]	tumor regression	7.96	7.64	–	–
O=C(NCc1ccc(S(=O)(=O)c2ccc(F)cc2)cc1)c1cc2cnccc2[nH]1 [N-({4-[(4-fluorobenzene)sulfonyl]phenyl}methyl)-1H-pyrrolo[3,2-c]pyridine-2-carboxamide]	tumor regression	8.10	7.42	–	–
O=C(NCc1ccc(S(=O)(=O)c2ccccc2)cc1)c1ccc2cncn2c1 [N-{[4-(benzenesulfonyl)phenyl]methyl}imidazo[1,5-alpyridine-6-carboxamide]	–	–	–	< 5.70	–
O=C(NCc1ccc(S(=O)(=O)Nc2ccccc2OC(F)(F)F)cc1)c1cc2cnccc2[nH]1 [N-[(4-{[2-(trifluoromethoxy)phenyl]sulfamoyl}phenyl)methyl]-1H-pyrrolo[3,2-c]pyridine-2-carboxamide]	tumor stasis	9.00	8.22	–	–
CC(=O)c1ccc(S(=O)(=O)c2ccc(CNC(=O)c3cc4cnccc4[nH]3)cc2)cc1 [N-({4-[(4-acetylbenzene)sulfonyl]phenyl}methyl)-1H-pyrrolo[3,2-c]pyridine-2-carboxamide]	tumor regression	8.52	8.15	–	–
NC1CCN(S(=O)(=O)c2ccc(CNC(=O)c3cc4ccncc4s3)cc2)C1 (stereo not shown) [N-{[4-(3-aminopyrrolidine-1-sulfonyl)phenyl]methyl}thieno[2,3-c]pyridine-2-carboxamide hydrochloride]	–	–	–	6.51	–
O=C(NCc1ccc(S(=O)(=O)c2ccccc2)cc1)c1cc2ncccc2o1 [N-{[4-(benzenesulfonyl)phenyl]methyl}furo[3,2-b]pyridine-2-carboxamide]	–	–	–	6.26	–
O=C(NCc1ccc(S(=O)(=O)c2ccccc2)cc1)c1ccc2nccn2c1 [N-{[4-(benzenesulfonyl)phenyl]methyl}imidazo[1,2-a]pyridine-6-carboxamide]	tumor regression	7.96	7.68	–	–
O=C(NCc1ccc(S(=O)(=O)c2ccccc2)cn1)c1cc2cnccc2[nH]1 [N-{[5-(benzenesulfonyl)pyridin-2-yl]methyl}-1H-pyrrolo[3,2-c]pyridine-2-carboxamide]	–	–	–	7.46	–
O=C(NCc1ccc(S(=O)(=O)c2ccccc2)cc1)c1cn2ccnc2cn1 [N-{[4-(benzenesulfonyl)phenyl]methyl}imidazo[1,2-alpyrazinc-6-carboxamide]	–	–	–	< 5.70	–
O=C(NCc1ccc(S(=O)(=O)N2CCNCC2)cc1)c1cc2ccncc2s1 [N-{[4-(pipcrazine-1-sulfonyl)phenyl]methyl}thieno[2,3-c]pyridine-2-carboxamide]	–	–	–	6.39	–
O=C(NCc1ccc(S(=O)(=O)c2ccccc2)nc1)c1cc2cnccc2[nH]1 [N-{[6-(benzenesulfonyl)pyridin-3-yl]methyl}-1H-pyrrolo[3,2-c]pyridine-2-carboxamide]	–	–	–	< 5.70	–
COc1cc(-n2cccn2)ccc1S(=O)(=O)c1ccc(CNC(=O)c2cc3cnccc3[nH]2)cc1 [N-[(4-{[2-methoxy-4-(1H-pyrazol-1-yl)benzene]sulfonyl}phenyl)methyl]-1H-pyrrolo[3,2-c]pyridine-2-carboxamide]	delayed tumor growth	8.70	7.80	–	–
NC1CCN(S(=O)(=O)c2ccc(CNC(=O)c3cc4ccncc4o3)cc2)C1 (stereo not shown) [N-{[4-(3-aminopyrrolidine-1-sulfonyl)phenyl]methyl}furo[2,3-c]pyridine-2-carboxamide hydrochloride]	–	–	–	5.73	–
O=C(NCc1ccc(S(=O)(=O)c2ccccc2)cc1)c1cc2ncccc2s1 [N-{[4-(benzenesulfonyl)phenyl]methyl}thieno[3,2-b]pyridine-2-carboxamide]	–	–	–	< 5.70	–
O=C(NCc1ccc(S(=O)(=O)N2CCNCC2)cc1)c1ccc2nccn2c1 [N-{[4-(piperazine-1-sulfonyl)phenyl]methyl}imidazo[1,2-a]pyridine-6-carboxamide]	–	–	–	6.25	–
O=C(NCc1ccc(S(=O)(=O)c2ccccc2OC(F)(F)F)cc1)c1cc2cnccc2[nH]1 [N-[(4-{[2-(trifluoromethoxy)benzene]sulfonyl}phenyl)methyl]-1H-pyrrolo[3,2-c]pyridine-2-carboxamide]	tumor regression	8.52	7.80	–	–
O=C(NCc1ccc(S(=O)(=O)c2cccc(Cl)c2)cc1)c1cc2cnccc2[nH]1 [N-({4-[(3-chlorobenzene)sulfonyl]phenyl}methyl)-1H-pyrrolo[3,2-c]pyridine-2-carboxamide]	tumor regression	8.52	8.30	–	–
